Laboratory results published in patent US8518997B2, “4-(phenoxyalkyl)thio)-phenoxyacetic acids and analogs” (Janssen Pharmaceutica N.V., priority 2003, dated 2013).

What was measured:
PPAR delta = target: T1, PPAR delta (Homo sapiens, UniProt Q03181); experiment: Transfection assay for PPAR receptors (PPAR-Gal4 / Gal4-Luciferase reporter in HEK293 cells); assay type: cell-based
T1 sequence (Q03181 171-441 limits assumed): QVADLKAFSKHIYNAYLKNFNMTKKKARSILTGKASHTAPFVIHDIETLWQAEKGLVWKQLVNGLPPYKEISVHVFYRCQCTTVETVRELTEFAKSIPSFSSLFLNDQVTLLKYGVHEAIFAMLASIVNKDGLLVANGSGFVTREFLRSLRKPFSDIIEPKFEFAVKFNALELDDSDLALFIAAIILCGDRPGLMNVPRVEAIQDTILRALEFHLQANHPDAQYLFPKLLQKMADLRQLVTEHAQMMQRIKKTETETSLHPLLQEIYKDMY
Description: Transfection Assay Method for PPAR Receptors
HEK293 cells were grown in DMEM/F-12 Media supplemented with 10% FBS and glutamine (GIBCOBRL). The cells were co-transfected with DNA for PPAR-Gal4 (PPARα, γ or δ) receptor and Gal4-Luciferase Reporter using the DMRIE-C Reagent. On the following day, the medium was replaced with 5% Charcoal treated FBS growth medium. After six hours, cells were trypsinized and seeded at a density of 50,000 cell/well into 96 well plates and incubated overnight at 37° C. in a 5% CO2 incubator. Cells were then treated with test compounds or vehicle and incubated for 24 hours at 37° C. in a 5% CO2 incubator. Luciferase activity was assayed using the Steady-Glo Luciferase Assay Kit from Promega. […] Steady-Glo Luciferase Assay Kit was purchased from Promega Part# E254B.

[1] = test system: differentiated THP-1 monocytes; conditions: cited from earlier work

SMILES: Cc1cc(OCC(O)COc2ccc(C(F)(F)F)cc2)ccc1OCC(=O)O (stereo not shown) [Compound 45]
- EC50 (PPAR delta; HEK293 cells co-transfected with PPAR-Gal4 (δ) receptor and Gal4-Luciferase reporter, 24 hours, multiple EC50's = multiple measurements, Table 2): 618 nM

SMILES: Cc1cc(SCc2sc(-c3ccc(C(F)(F)F)cc3)nc2C)ccc1OCC(=O)O [GW501516]
- ABCA1 mRNA expression [1]: induced
- cholesterol efflux [1]: enhanced

SMILES: Cc1cc(SCCCOc2ccc(C(F)(F)F)cc2)ccc1OCC(=O)O [{2-Methyl-4-[3-(4-trifluoromethyl-phenoxy)-propylsulfanyl]-phenoxy}-acetic acid]
- EC50 (PPAR delta; Table 3 compounds of interest, tested likewise): 17.6 nM
